Results as given in ChEMBL document CHEMBL1133071, “Potent in vitro methicillin-resistant Staphylococcus aureus activity of 2-(1H-indol-3-yl)quinoline derivatives” (2000).
≈ marks a conversion by molar mass, not a printed value.

What was measured:
Assay type in all cases: functional
Enterococcus faecium = experiment: Minimum inhibitory concentration against vancomycin resistant Enterococcus faecium (VRE)
Staphylococcus aureus [1] = experiment: Minimum inhibitory concentration against methicillin resistant staphylococcus aureus (MRSA)
Staphylococcus aureus [2] = experiment: The compound was evaluated in vitro for minimum inhibitory concentration against staphylococcus aureus HP-5827
Staphylococcus aureus [3] = experiment: The compound was evaluated in vitro for minimum inhibitory concentration against staphylococcus aureus HP-5836

Compound | MIC (Enterococcus faecium) [µg/mL] | MIC (Staphylococcus aureus [1]) [µg/mL] | MIC (Staphylococcus aureus [2]) [µg/mL] | MIC (Staphylococcus aureus [3]) [µg/mL]
N#Cc1ccc2[nH]cc(-c3ccc4cc(Cl)ccc4n3)c2c1 | > 25 | > 25 | – | –
Clc1ccc2nc(-c3c[nH]c4c(Cl)cccc34)ccc2c1 | > 25 | > 25 | – | –
NCCNC(=O)c1cc(-c2c[nH]c3ccc(Br)cc23)nc2c(Cl)cccc12.O=C(O)C(F)(F)F | 3.13 | 1.56 | – | –
O=C(O)c1cc(-c2c[nH]c3ccc(Br)cc23)nc2cc(Cl)ccc12 | 25 (≈ 62.2 µM) | 25 (≈ 62.2 µM) | – | –
O=C(Oc1ccc2[nH]cc(-c3ccc4cc(Cl)ccc4n3)c2c1)c1ccccc1 | > 25 | 1.56 (≈ 3.91 µM) | – | –
COc1ccc2[nH]cc(-c3ccc4cc(Cl)ccc4n3)c2c1 | > 25 | > 25 | – | –
Clc1ccc2nc(-c3c[nH]c4ccc(Br)cc34)ccc2c1 | > 25 | 0.62 (≈ 1.73 µM) | – | –
Clc1ccc2nc(-c3c[nH]c4ccccc34)ccc2c1 | > 25 | 5 (≈ 17.9 µM) | – | –
NCCNC(=O)c1cc(-c2c[nH]c3ccc(Br)cc23)nc2cc(F)ccc12.O=C(O)C(F)(F)F | 3.13 | 3.13 | – | –
Oc1ccc2[nH]cc(-c3ccc4cc(Cl)ccc4n3)c2c1 | > 25 | 12.5 (≈ 42.4 µM) | – | –
NCCNC(=O)c1cc(-c2c[nH]c3ccc(Br)cc23)nc2cc(Cl)cc(Cl)c12.O=C(O)C(F)(F)F | 1.56 | 0.78 | – | –
Clc1ccc2ccc(-c3c[nH]c4ccc(Br)cc34)nc2c1 | > 25 | 0.6 (≈ 1.68 µM) | – | –
OCc1cc(-c2c[nH]c3ccc(Br)cc23)nc2cc(Cl)ccc12 | 2.5 (≈ 6.45 µM) | 0.31 (≈ 0.8 µM) | – | –
Fc1ccc2c(-c3ccc4cc(Cl)ccc4n3)c[nH]c2c1 | 6.25 (≈ 21.1 µM) | 1.56 (≈ 5.26 µM) | – | –
Clc1ccc2nc(-c3c[nH]c4ccc(Cl)cc34)ccc2c1 | > 25 | 0.78 (≈ 2.49 µM) | – | –
NCCNC(=O)c1cc(-c2c[nH]c3ccc(Br)cc23)nc2c(F)cccc12.O=C(O)C(F)(F)F | 12.5 | 6.25 | – | –
NCCNC(=O)c1cc(-c2c[nH]c3ccc(Br)cc23)nc2cc3c(cc12)OCO3.O=C(O)C(F)(F)F | – | 12.5 | – | –
Fc1ccc2[nH]cc(-c3ccc4cc(Cl)ccc4n3)c2c1 | 12.5 (≈ 42.1 µM) | 0.78 (≈ 2.63 µM) | – | –
NCCNC(=O)c1cc(-c2c[nH]c3ccc(Br)cc23)nc2ccc(Cl)cc12.O=C(O)C(F)(F)F | 3.13 | 1.56 | – | –
NCCNC(=O)c1cc(-c2c[nH]c3ccc(Br)cc23)nc2c(Cl)c(Cl)ccc12.O=C(O)C(F)(F)F | 0.78 | 0.78 | – | –
NCCNC(=O)c1cc(-c2c[nH]c3ccc(Br)cc23)nc2cc(Cl)ccc12.O=C(O)C(F)(F)F | 1.56 | 0.78 | 0.78 | 0.39
NCCNC(=O)c1cc(-c2c[nH]c3ccc(Br)cc23)nc2cc(Cl)c(C#CCN3CCCCC3)cc12.O=C(O)C(F)(F)F | 6.25 | 3.13 | 1.56 | 3.13
Clc1ccc2c(Cl)cc(-c3c[nH]c4ccc(Br)cc34)nc2c1 | 3.13 (≈ 7.98 µM) | < 0.39 | – | –
NCc1cc(-c2c[nH]c3ccc(Br)cc23)nc2cc(Cl)ccc12.O=C(O)C(F)(F)F | 1.56 | 0.78 | 0.39 | 0.39
NCCNC(=O)c1cc(-c2c[nH]c3ccc(Br)cc23)nc2ccccc12.O=C(O)C(F)(F)F | 25 | 12.5 | – | –
Fc1cccc2[nH]cc(-c3ccc4cc(Cl)ccc4n3)c12 | > 25 | > 25 | – | –
